Measured values reported in ChEMBL document CHEMBL3885861, “Open TG-GATES”.

Species: Rattus norvegicus
Test: Open TG-GATES - Regimen: Daily Repeat
Type: toxicity, organism-based, Sprague-Dawley
Set-up: regimen Daily Repeat, gender Male, age 6 weeks
Conditions: in vivo, po, 30 mg/kg, route gavage, dose level Middle; for APTT / Bas / Eos / Fbg / Hb / Ht / Lym / MCH / MCHC / MCV / Mono / Neu / PT / Plat / RBC / Ret / WBC: tissue Blood; for KIDNEY_L / KIDNEY_R / KIDNEY_TOTAL: tissue Kidney; for LIVER: tissue Liver; for A/G / ALP / ALT / AST / BUN / CRE / Ca / Cl / DBIL / GLC / IP / K / LDH / Na / PL / RALB / TBIL / TC / TG / TP / gamma-GTP: tissue Plasma

SMILES: Nc1ccc(Cc2ccc(N)cc2)cc1
- TERMINAL_BW (72 h, time 3 day): 240.8 g
- APTT (72 h, time 3 day): 13.8 s
- Bas (72 h, time 3 day): 0%
- Eos (72 h, time 3 day): 1%
- Fbg (72 h, time 3 day): 295.8 mg/dL
- Hb (72 h, time 3 day): 13.3 g/dL
- Ht (72 h, time 3 day): 39.3%
- Lym (72 h, time 3 day): 72.6%
- MCH (72 h, time 3 day): 20.5 pg
- MCHC (72 h, time 3 day): 33.8%
- MCV (72 h, time 3 day): 60.6 fL
- Mono (72 h, time 3 day): 2.6%
- Neu (72 h, time 3 day): 23%
- PT (72 h, time 3 day): 11.4 s
- Plat (72 h, time 3 day): 133.5 x10_4/uL
- RBC (72 h, time 3 day): 649.4 x10_4/ul
- Ret (72 h, time 3 day): 5.6%
- WBC (72 h, time 3 day): 112 x10_2/uL
- KIDNEY_L (72 h, time 3 day): 1 g
- KIDNEY_R (72 h, time 3 day): 1 g
- KIDNEY_TOTAL (72 h, time 3 day): 2 g
- LIVER (72 h, time 3 day): 12.3 g
- A/G (72 h, time 3 day): 0.8
- ALP (72 h, time 3 day): 1785.8 IU/L
- ALT (72 h, time 3 day): 59.4 IU/L
- AST (72 h, time 3 day): 104 IU/L
- BUN (72 h, time 3 day): 14.6 mg/dL
- CRE (72 h, time 3 day): 0.2 mg/dL
- Ca (72 h, time 3 day): 11.1 mg/dL
- Cl (72 h, time 3 day): 105.6 meq/L
- DBIL (72 h, time 3 day): 0.022 mg/dL
- GLC (72 h, time 3 day): 159.2 mg/dL
- IP (72 h, time 3 day): 7.5 mg/dL
- K (72 h, time 3 day): 4.2 meq/L
- LDH (72 h, time 3 day): 89.2 IU/L
- Na (72 h, time 3 day): 143.4 meq/L
- PL (72 h, time 3 day): 160 mg/dL
- RALB (72 h, time 3 day): 2.6 g/dL
- TBIL (72 h, time 3 day): 0.05 mg/dL
- TC (72 h, time 3 day): 95.8 mg/dL
- TG (72 h, time 3 day): 83.4 mg/dL
- TP (72 h, time 3 day): 5.8 g/dL
- gamma-GTP (72 h, time 3 day): 2 IU/L
- TERMINAL_BW ([…], time 7 day): 277.9 g
- TERMINAL_BW ([…], time 14 day): 333.9 g
- TERMINAL_BW ([…], time 28 day): 429.1 g
- APTT ([…], time 7 day): 14.2 s
- Bas ([…], time 7 day): 0.2%
- Eos ([…], time 7 day): 0.8%
- Fbg ([…], time 7 day): 286 mg/dL
- Hb ([…], time 7 day): 13.7 g/dL
- Ht ([…], time 7 day): 39.1%
- Lym ([…], time 7 day): 71.6%
- MCH ([…], time 7 day): 20.6 pg
- MCHC ([…], time 7 day): 34.9%
- MCV ([…], time 7 day): 59.1 fL
- Mono ([…], time 7 day): 2.8%
- Neu ([…], time 7 day): 23.8%
- PT ([…], time 7 day): 11.4 s
- Plat ([…], time 7 day): 147.7 x10_4/uL
- RBC ([…], time 7 day): 663 x10_4/ul
- Ret ([…], time 7 day): 5.2%
- WBC ([…], time 7 day): 101.6 x10_2/uL
- APTT ([…], time 14 day): 15.3 s
- Bas ([…], time 14 day): 0.2%
- Eos ([…], time 14 day): 0.6%
- Fbg ([…], time 14 day): 273.6 mg/dL
- Hb ([…], time 14 day): 13.7 g/dL
- Ht ([…], time 14 day): 39.6%
- Lym ([…], time 14 day): 75%
- MCH ([…], time 14 day): 20.1 pg
- MCHC ([…], time 14 day): 34.7%
- MCV ([…], time 14 day): 57.9 fL
- Mono ([…], time 14 day): 2.2%
- Neu ([…], time 14 day): 21.2%
- PT ([…], time 14 day): 11.8 s
- Plat ([…], time 14 day): 141.9 x10_4/uL
- RBC ([…], time 14 day): 684.8 x10_4/ul
- Ret ([…], time 14 day): 4.6%
- WBC ([…], time 14 day): 128.9 x10_2/uL
- APTT ([…], time 28 day): 17.1 s
- Bas ([…], time 28 day): 0.8%
- Eos ([…], time 28 day): 1%
- Fbg ([…], time 28 day): 273.4 mg/dL
- Hb ([…], time 28 day): 14.9 g/dL
- Ht ([…], time 28 day): 41.7%
- Lym ([…], time 28 day): 76.8%
- MCH ([…], time 28 day): 19.8 pg
- MCHC ([…], time 28 day): 35.7%
- MCV ([…], time 28 day): 55.5 fL
- Mono ([…], time 28 day): 2.2%
- Neu ([…], time 28 day): 19%
- PT ([…], time 28 day): 11.9 s
- Plat ([…], time 28 day): 109.8 x10_4/uL
- RBC ([…], time 28 day): 752 x10_4/ul
- Ret ([…], time 28 day): 2.7%
- WBC ([…], time 28 day): 131.8 x10_2/uL
- KIDNEY_L ([…], time 7 day): 1.1 g
- KIDNEY_R ([…], time 7 day): 1.1 g
- KIDNEY_TOTAL ([…], time 7 day): 2.2 g
- KIDNEY_L ([…], time 14 day): 1.2 g
- KIDNEY_R ([…], time 14 day): 1.2 g
- KIDNEY_TOTAL ([…], time 14 day): 2.4 g
- KIDNEY_L ([…], time 28 day): 1.4 g
- KIDNEY_R ([…], time 28 day): 1.4 g
- KIDNEY_TOTAL ([…], time 28 day): 2.9 g
- LIVER ([…], time 7 day): 13.2 g
- LIVER ([…], time 14 day): 15.2 g
- LIVER ([…], time 28 day): 19.2 g
- A/G ([…], time 7 day): 0.8
- ALP ([…], time 7 day): 1631.6 IU/L
- ALT ([…], time 7 day): 37 IU/L
- AST ([…], time 7 day): 68 IU/L
- BUN ([…], time 7 day): 17.4 mg/dL
- CRE ([…], time 7 day): 0.2 mg/dL
- Ca ([…], time 7 day): 11.2 mg/dL
- Cl ([…], time 7 day): 105.2 meq/L
- DBIL ([…], time 7 day): 0.026 mg/dL
- GLC ([…], time 7 day): 173.6 mg/dL
- IP ([…], time 7 day): 7.4 mg/dL
- K ([…], time 7 day): 4.1 meq/L
- LDH ([…], time 7 day): 85.2 IU/L
- Na ([…], time 7 day): 143 meq/L
- PL ([…], time 7 day): 145 mg/dL
- RALB ([…], time 7 day): 2.7 g/dL
- TBIL ([…], time 7 day): 0.064 mg/dL
- TC ([…], time 7 day): 81 mg/dL
- TG ([…], time 7 day): 125.2 mg/dL
- TP ([…], time 7 day): 6 g/dL
- gamma-GTP ([…], time 7 day): 1.2 IU/L
- A/G ([…], time 14 day): 0.8
- ALP ([…], time 14 day): 1617.2 IU/L
- ALT ([…], time 14 day): 38.4 IU/L
- AST ([…], time 14 day): 66.4 IU/L
- BUN ([…], time 14 day): 15.6 mg/dL
- CRE ([…], time 14 day): 0.2 mg/dL
- Ca ([…], time 14 day): 10.9 mg/dL
- Cl ([…], time 14 day): 105 meq/L
- DBIL ([…], time 14 day): 0.016 mg/dL
- GLC ([…], time 14 day): 190.6 mg/dL
- IP ([…], time 14 day): 6.8 mg/dL
- K ([…], time 14 day): 3.7 meq/L
- LDH ([…], time 14 day): 71.8 IU/L
- Na ([…], time 14 day): 143.2 meq/L
- PL ([…], time 14 day): 141.2 mg/dL
- RALB ([…], time 14 day): 2.6 g/dL
- TBIL ([…], time 14 day): 0.054 mg/dL
- TC ([…], time 14 day): 72.8 mg/dL
- TG ([…], time 14 day): 96.8 mg/dL
- TP ([…], time 14 day): 6.1 g/dL
- gamma-GTP ([…], time 14 day): 1 IU/L
- A/G ([…], time 28 day): 0.7
- ALP ([…], time 28 day): 1167.6 IU/L
- ALT ([…], time 28 day): 38.6 IU/L
- AST ([…], time 28 day): 66.2 IU/L
- BUN ([…], time 28 day): 15.4 mg/dL
- CRE ([…], time 28 day): 0.2 mg/dL
- Ca ([…], time 28 day): 11.1 mg/dL
- Cl ([…], time 28 day): 104.8 meq/L
- DBIL ([…], time 28 day): 0.024 mg/dL
- GLC ([…], time 28 day): 178.6 mg/dL
- IP ([…], time 28 day): 6.1 mg/dL
- K ([…], time 28 day): 4 meq/L
- LDH ([…], time 28 day): 74.6 IU/L
- Na ([…], time 28 day): 145.2 meq/L
- PL ([…], time 28 day): 141.6 mg/dL
- RALB ([…], time 28 day): 2.6 g/dL
- TBIL ([…], time 28 day): 0.062 mg/dL
- TC ([…], time 28 day): 73.6 mg/dL
- TG ([…], time 28 day): 110.4 mg/dL
- TP ([…], time 28 day): 6.4 g/dL
- gamma-GTP ([…], time 28 day): 1 IU/L
